Source: patent US12492173B2, “Herbicidal substituted N-tetrazolyl aryl carboxamides” (Bayer Aktiengesellschaft, priority 2019, dated 2025)

Key:
Assay type in all cases: in vivo
Echinochloa crus-galli = assay: Pre-emergence herbicidal action, ECHCG; conditions: dosage 320 g/ha, scored visually after 3 weeks vs untreated controls (100% = plants have died)
How it was run: (§1)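 Weed seeds sown in sandy loam and covered; WP or EC formulations applied to soil surface as aqueous suspension or emulsion at 600 to 800 l/ha with 0.2% wetting agent. Greenhouse-grown, with damage scored visually after 3 weeks versus untreated controls (0% = like control, 100% = plants dead).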

Veronica persica = assay: Pre-emergence herbicidal action, VERPE; conditions: dosage 320 g/ha, scored visually after 3 weeks vs untreated controls (100% = plants have died)
How it was run: as §1

Pharbitis purpurea = assay: Pre-emergence herbicidal action, PHBPU; conditions: dosage 320 g/ha, scored visually after 3 weeks vs untreated controls (100% = plants have died)
How it was run: as §1

Setaria viridis = assay: Pre-emergence herbicidal action, SETVI; conditions: dosage 320 g/ha, scored visually after 3 weeks vs untreated controls (100% = plants have died)
How it was run: as §1

Matricaria inodora = assay: Post-emergence herbicidal action, MATIN; parameters: key: % herbicidal action vs untreated; 100 = plants died, 0 = like control
How it was run: (§2)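 Treatment: post-emergence spray, one-leaf stage. Medium: sandy loam, greenhouse. Carrier: 600–800 l/ha water, 0.2% wetting agent. Read-out: visual % activity at ~3 weeks, untreated plants as reference.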

Alopecurus myosuroides = assay: Post-emergence herbicidal action, ALOMY; parameters: key: % herbicidal action vs untreated; 100 = plants died, 0 = like control
How it was run: as §2

| Structure (SMILES) | herbicidal activity ECHCG (Echinochloa crus-galli) [%] | herbicidal activity VERPE (Veronica persica) [%] | herbicidal activity PHBPU (Pharbitis purpurea) [%] | herbicidal activity SETVI (Setaria viridis) [%] | herbicidal action MATIN (Matricaria inodora; post-emergence, dosage 80 g/ha) [%] | herbicidal action ALOMY (Alopecurus myosuroides; post-emergence, dosage 80 g/ha) [%] | herbicidal action MATIN (Matricaria inodora; Dosage 80 g/ha) | herbicidal action ALOMY (Alopecurus myosuroides; Dosage 80 g/ha) |
| --- | --- | --- | --- | --- | --- | --- | --- | --- |
| CCn1nnnc1NC(=O)c1ccc(C(F)(F)F)c(CSC)c1Cl [Example 2-296] | 100 | 100 | 90 | 100 | 90 | 100 |  |  |
| CCn1nnnc1NC(=O)c1ccc(C(F)(F)F)c(C[S+](C)[O-])c1Cl (stereo not drawn) [Example 2-297] | 100 | 100 | 90 | 100 | 100 | 100 |  |  |
| CCn1nnnc1NC(=O)c1ccc(C(F)(F)F)c(CS(C)(=O)=O)c1Cl [Example 2-298] | 100 | 100 | 80 | 100 |  |  | 100 | 80 |
| CCSCc1c(C(F)(F)F)ccc(C(=O)Nc2nnnn2CC)c1Cl [Example 2-299] | 100 | 100 | 90 | 100 | 100 | 90 |  |  |
| CCn1nnnc1NC(=O)c1ccc(C(F)(F)F)c(C[S+]([O-])CC)c1Cl (stereo not drawn) [Example 2-300] | 100 | 100 | 100 | 100 | 90 | 90 |  |  |
| CCn1nnnc1NC(=O)c1ccc(C(F)(F)F)c(CSCCOC)c1Cl [Example 2-305] | 100 | 100 | 100 | 100 | 100 | 100 |  |  |
| CCn1nnnc1NC(=O)c1ccc(C(F)F)c(CS(C)(=O)=O)c1Cl [Example 2-322] | 100 | 100 | 100 | 100 | 90 | 80 |  |  |
| CCSCc1c(C(F)F)ccc(C(=O)Nc2nnnn2CC)c1Cl [Example 2-323] | 100 | 100 | 90 | 100 | 90 | 80 |  |  |
| CCn1nnnc1NC(=O)c1ccc(C(F)F)c(C[S+]([O-])CC)c1Cl (stereo not drawn) [Example 2-324] | 100 | 100 | 100 | 100 | 100 | 90 |  |  |
| CCn1nnnc1NC(=O)c1ccc(C(F)F)c(CS(=O)(=O)CC)c1Cl [Example 2-325] | 100 | 100 | 100 | 100 |  |  | 80 | 80 |
| CCn1nnnc1NC(=O)c1ccc(I)c(C[S+](C)[O-])c1Cl (stereo not drawn) [Example 2-363] | 100 | 100 | 80 | 100 |  |  | 100 | 90 |
| CCn1nnnc1NC(=O)c1ccc(C(F)(F)F)c(C[S+]([O-])CC)c1Br (stereo not drawn) [Example 2-384] | 100 | 100 | 90 | 100 | 100 | 90 |  |  |
| CCn1nnnc1NC(=O)c1ccc(C(F)(F)F)c(CS(=O)(=O)CC)c1Br [Example 2-385] | 100 | 100 | 80 | 100 | 100 | 80 |  |  |
| CCCn1nnnc1NC(=O)c1ccc(C(F)(F)F)c(C[S+](C)[O-])c1SC (stereo not drawn) [Example 3-162] | 100 | 100 | 90 | 100 | 100 | 90 |  |  |
| CCCn1nnnc1NC(=O)c1ccc(C(F)(F)F)c(CS(C)(=O)=O)c1SC [Example 3-163] | 100 | 100 | 80 | 100 |  |  | 90 | 90 |
| C=CCSCc1c(C(F)(F)F)ccc(C(=O)Nc2nnnn2CCC)c1Cl [Example 3-308] | 100 | 100 | 100 | 100 |  |  | 100 | 100 |
| CCCn1nnnc1NC(=O)c1ccc(C(F)(F)F)c(CSCC2CC2)c1Cl [Example 3-314] | 90 | 100 | 80 | 100 | 100 | 100 |  |  |
| CCCn1nnnc1NC(=O)c1ccc(C(F)F)c(CSCC)c1Cl [Example 3-323] | 100 | 100 | 100 | 100 |  |  | 90 | 80 |
| CCCn1nnnc1NC(=O)c1ccc(C(F)(F)F)c(C[S+]([O-])CC)c1Br (stereo not drawn) [Example 3-384] | 100 | 100 | 90 | 100 |  |  | 100 | 80 |
